Test results reported in US6514968B1, “Aminoalkoxy carbazoles for the treatment of cns diseases” (Pharmacia & Upjohn Company, priority 1999, dated 2003).

Biological target: T1, cloned human 5-HT6 receptor (Homo sapiens, UniProt P50406)
T1 construct: host or cells: HeLa cells (G-418 selection), membrane preparation
Assay: 5-HT6 Receptor Binding Assay
Details: [3H]-lysergic acid diethylamide (LSD) radioligand, membranes of Hela cells containing the cloned human 5-HT6 receptor, SPA beads; estimated IC50 converted to Ki by Cheng-Prusoff
Procedure: 5-HT6 Receptor Binding Assay
Growth of Cells and Membrane Preparation
Hela cells containing the cloned human 5-HT6 receptor were acquired from Dr. David R. Sibley's laboratory in National Institute of Health (see Sibley, D. R., J. Neurochemistry, 66, 47-56, 1996). Cells were grown in high glucose Dulbecco's modified Eagle's medium, supplemented with L-glutamine, 0.5% sodium pyruvate, 0.3% penicillin-streptomycin, 0.025% G-418 and 5% Gibco fetal bovine serum and then were harvested, when confluent, in cold phosphate-buffered saline.
Harvested intact cells were washed once in cold phosphate-buffered saline. The cells were pelleted and resuspended in 100 ml of cold 50 mM Tris, 5 mM EDTA and 5 mM EGTA, pH 7.4. Homogenization was with a Vir Tishear generator, 4 cycles for 30 seconds each at setting 50. The homogenized cells were centrifuged at 700 RPM (1000×g) for 10 minutes and the supernatant was removed. The pellet was resuspended in 100 ml of the above buffer and rehomogenized for 2 cycles. The rehomogenized cells were then centrifuged at 700 RPM (1000×g) for 10 minutes and the supernatant was removed. The combined supernatant (200ml) was centrifuged at 23,000 RPM (80,000×g) for 1 hour in a Beckman Rotor (42.1 Ti). The membrane pellet was resupended in 50-8-ml of assay buffer containing HEPES 20 mM, MgCl2 10 mM, NaCl 150 mM, EDTA 1 mM, pH 7.4 and stored frozen in aliqouts at −70° C.
The radioligand binding assay used [^3H]-lysergic acid diethylamide (LSD). The assay was carried out in Wallac 96-well sample plates by the addition of 11 μl of the test sample at the appropriate dilution (the assay employed 11 serial concentrations of samples run in duplicate), 11 μl of radioligand, and 178 μl of a washed mixture of WGA-coated SPA beads and membranes in binding buffer. The plates were shaken for about 5 minutes and then incubated at room temperature for 1 hour. The plates were then loaded into counting cassettes and counted in a Wallac MicroBeta Trilux scintillation counter.
Binding Constant (Ki) Determination
Eleven serial dilutions of test compounds were distributed to assay plates using the PE/Cetus Pro/Pette pipetter. These dilutions were, followed by radioligand and the bead-membrane mixture prepared as described above. The specifically bound cpm obtained were fit to a one-site binding model using GraphPad Prism ver. 2.0. Estimated IC50 values were converted to Ki values using the Cheng-Prusoff equation (Cheng, Y. C. et al., Biochem. Pharmacol., 22, 3099-108, 1973).

T1 sequence (P50406 whole entry): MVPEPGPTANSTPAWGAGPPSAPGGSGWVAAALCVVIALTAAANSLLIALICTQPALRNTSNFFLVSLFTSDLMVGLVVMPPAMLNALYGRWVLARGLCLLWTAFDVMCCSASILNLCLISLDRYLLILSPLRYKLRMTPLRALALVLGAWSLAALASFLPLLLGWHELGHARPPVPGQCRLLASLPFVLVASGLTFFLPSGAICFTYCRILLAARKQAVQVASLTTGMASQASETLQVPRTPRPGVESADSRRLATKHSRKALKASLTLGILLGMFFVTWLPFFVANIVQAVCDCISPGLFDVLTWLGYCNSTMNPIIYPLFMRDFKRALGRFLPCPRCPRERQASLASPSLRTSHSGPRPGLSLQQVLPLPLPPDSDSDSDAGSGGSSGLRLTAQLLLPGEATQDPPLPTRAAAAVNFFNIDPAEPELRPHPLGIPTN

Row | SMILES | Ki [nM]
1 | c1ccc(Cn2c3ccccc3c3c(OCCNC4CC4)cccc32)cc1 [Example 31, N-{2-[(9-benzyl-9H-carbazol-4-yl)oxy]ethyl}-N-cyclopropylamine] | 21
2 | c1ccc(Cn2c3ccccc3c3c(OCCNCCN4CCOCC4)cccc32)cc1 [Example 20, 2-[(9-benzyl-9H-carbazol-4-yl)oxy]-N-[2-(4-morpholinyl)ethyl]-1-ethanamine] | 37
3 | O[C@H]1CCCC[C@@H]1NCCOc1cccc2c1c1ccccc1n2Cc1ccccc1 [Example 24, (1S,2S)-2-({2-[(9-benzyl-9H-carbazol-4-yl)oxy]ethyl}amino)cyclohexanol] | 85
4 | c1ccc(Cn2c3ccccc3c3c(OCCN4CCOCC4)cccc32)cc1 [Example 8, 9-benzyl-4-[2-(4-morpholinyl)ethoxy]-9H-carbazole] | 398
5 | OC1CCN(CCOc2cccc3c2c2ccccc2n3Cc2ccccc2)CC1 [Example 29, 1-{2-[(9-benzyl-9H-carbazol-4-yl)oxy]ethyl}-4-piperidinol] | 11
6 | c1ccc(Cn2c3ccccc3c3c(OCCNCc4nc5ccccc5[nH]4)cccc32)cc1 [Example 28, N-(1H-benzimidazol-2-ylmethyl)-2-[(9-benzyl-9H-carbazol-4-yl)oxy]-1-ethanamine] | 72
7 | OCCCNCCOc1cccc2c1c1ccccc1n2Cc1ccccc1 [Example 10, 3-({2-[(9-benzyl-9H-carbazol-4-yl)oxy]ethyl}amino)-1-propanol] | 20
8 | NCCOc1c(Cl)ccc2c1c1ccccc1n2Cc1ccccc1 [Example 52, 2-[(9-Benzyl-3-chloro-9H-carbazol-4-yl)oxy]ethylamine] | 24
9 | CCNCCOc1cccc2c1c1ccccc1n2Cc1ccccc1 [Example 37, 2-[(9-benzyl-9H-carbazol-4-yl)oxy]-N-ethyl-1-ethanamine] | 11
10 | c1ccc(Cn2c3ccccc3c3c(OCCNCCCN4CCOCC4)cccc32)cc1 [Example 12] | 184
11 | NCCOc1cccc2c1c1ccccc1n2Cc1cccc(F)c1 [Example 54, 2-{[9-(3-Fluorobenzyl)-9H-carbazol-4-yl]oxy}ethylamine] | 101
12 | CCN(CC)CCOc1cccc2c1c1cccc(C)c1n2Cc1ccccc1 [Example 4, N-{2-[(9-Benzyl-8-methyl-9H-carbazol-4-yl)oxy]ethyl}-N,N-diethylamine] | 18
13 | NCCOc1cccc2c1c1ccccc1n2Cc1ccccc1F [Example 56, 2-{[9-(2-Fluorobenzyl)-9H-carbazol-4-yl]oxy}ethylamine] | 119
14 | C=CCNCCOc1cccc2c1c1ccccc1n2Cc1ccccc1 [Example 11, N-{2-[(9-benzyl-9H-carbazol-4-yl)oxy]ethyl}-2-propen-1-amine] | 23
15 | COc1ccc2c(c1)c1c(OCCN)cccc1n2Cc1ccccc1 [Example 61, 2-[(9-Benzyl-6-methoxy-9H-carbazol-4-yl)oxy]ethylamine] | 27
16 | Cc1ccc(Cn2c3ccccc3c3c(OCCN)cccc32)cc1 [Example 55, 2-{[9-(4-Methylbenzyl)-9H-carbazol-4-yl]oxy}ethylamine] | 482
17 | c1ccc(Cn2c3ccccc3c3c(OCCNC4CCC4)cccc32)cc1 [Example 26, N-{2-[(9-benzyl-9H-carbazol-4-yl)oxy]ethyl}cyclobutanamine] | 47
18 | CCN(CC)CCOc1cccc2c1c1cc(C)ccc1n2Cc1ccccc1 [Example 45, N-{2-[(9-Benzyl-6-methyl-9H-carbazol-4-yl)oxy]ethyl}-N,N-diethylamine] | 6.6
19 | CCCNCCOc1cccc2c1c1ccccc1n2Cc1ccccc1 [Example 14, N-{2-[(9-benzyl-9H-carbazol-4-yl)oxy]ethyl}-1-propanamine] | 40
20 | NCCOc1cccc2c1c1ccccc1n2Cc1csc2ccc(Cl)cc12 [Example 50, 2-({9-[(5-Chloro-1-benzothiophen-3-yl)methyl]-9H-carbazol-4-yl}oxy)ethylamine] | 138
21 | NCCOc1cccc2c1c1ccccc1n2Cc1ccccc1 [Example 35, 2-[(9-Benzyl-9H-carbazol-4-yl)oxy]ethylamine] | 23

Row | SMILES | Ki [nM]
22 | Fc1ccc(CCNCCOc2cccc3c2c2ccccc2n3Cc2ccccc2)cc1 [Example 22, 2-[(9-benzyl-9H-carbazol-4-yl)oxy]-N-(4-fluorophenethyl)-1-ethanamine] | 81
23 | c1ccc(Cn2c3ccccc3c3c(OCCNCc4ccccn4)cccc32)cc1 [Example 6, N-{2-[(9-Benzyl-9H-carbazol-4-yl)oxy]ethyl}-N-(2-pyridinylmethyl)amine] | 69
24 | CCN(CC)CCOc1cccc2c1c1cccc(C)c1n2Cc1ccc(F)cc1 [Example 5, N,N-Diethyl-N-(2-{[9-(4-fluorobenzyl)-8-methyl-9H-carbazol-4-yl]oxy}ethyl)amine] | 38
25 | CC(C)(CO)NCCOc1cccc2c1c1ccccc1n2Cc1ccccc1 [Example 17, 2-({2-[(9-benzyl-9H-carbazol-4-yl)oxy]ethyl}amino)-2-methyl-1-propanol] | 164
26 | NCCOc1cccc2c1c1ccccc1n2Cc1cccc(Br)c1 [Example 53, 2-{[9-(3-Bromobenzyl)-9H-carbazol-4-yl]oxy}ethylamine] | 127
27 | Clc1ccc(CCNCCOc2cccc3c2c2ccccc2n3Cc2ccccc2)cc1 [Example 18, 2-[(9-benzyl-9H-carbazol-4-yl)oxy]-N-(4-chlorophenethyl)-1-ethanamine] | 356
28 | CCCN(CCC)CCOc1cccc2c1c1ccccc1n2Cc1ccccc1 [Example 15, N-{2-[(9-benzyl-9H-carbazol-4-yl)oxy]ethyl}-N-propyl-1-propanamine] | 394
29 | CN1CCN(CCOc2cccc3c2c2ccccc2n3Cc2ccccc2)CC1 [Example 30, 9-benzyl-4-[2-(4-methyl-1-piperazinyl)ethoxy]-9H-carbazole] | 12
30 | OCCCCCNCCOc1cccc2c1c1ccccc1n2Cc1ccccc1 [Example 13, 5-({2-[(9-benzyl-9H-carbazol-4-yl)oxy]ethyl}amino)-1-pentanol] | 43
31 | CCC(O)CNCCOc1cccc2c1c1ccccc1n2Cc1ccccc1 (stereo not drawn) [Example 21, 1-({2-[(9-benzyl-9H-carbazol-4-yl)oxy]ethyl}amino)-2-butanol] | 72
32 | CCN(CC)CCOc1cccc2c1c1cc(C)ccc1n2Cc1ccc(F)cc1 [Example 48, N,N-Diethyl-N-(2-{[9-(4-fluorobenzyl)-6-methyl-9H-carbazol-4-yl]oxy}ethyl)amine] | 123
33 | O=CNCCN1CCN(CCOc2cccc3c2c2ccccc2n3Cc2ccccc2)CC1 [Example 27, 2-(4-{2-[(9-benzyl-9H-carbazol-4-yl)oxy]ethyl}-1-piperazinyl)ethylformamide] | 138
34 | Cc1cccc(Cn2c3ccccc3c3c(OCCN)cccc32)c1 [Example 59, 2-{[9-(3-Methylbenzyl)-9H-carbazol-4-yl]oxy}ethylamine] | 20
35 | c1ccc(Cn2c3ccccc3c3c(OCCN4CCNCC4)cccc32)cc1 [Example 40, 9-Benzyl-4-[2-(1-piperazinyl)ethoxy]-9H-carbazole] | 88
36 | c1ccc(CN2CCC(NCCOc3cccc4c3c3ccccc3n4Cc3ccccc3)CC2)cc1 [Example 16, 1-benzyl-N-{2-[(9-benzyl-9H-carbazol-4-yl)oxy]ethyl}-4-piperidinamine] | 148
37 | OCCOCCNCCOc1cccc2c1c1ccccc1n2Cc1ccccc1 [Example 23, 2-[2-({2-[(9-benzyl-9H-carbazol-4-yl)oxy]ethyl}amino)ethoxy]-1-ethanol] | 32
38 | OCCN1CCN(CCOc2cccc3c2c2ccccc2n3Cc2ccccc2)CC1 [Example 9, 2-(4-{2-[(9-benzyl-9H-carbazol-4-yl)oxy]ethyl}-1-piperazinyl)-1-ethanol] | 62
39 | Cc1nc(Cn2c3ccccc3c3c(OCCN)cccc32)cs1 [Example 51, 2-({9-[(2-Methyl-1,3-thiazol-4-yl)methyl]-9H-carbazol-4-yl}oxy)ethylamine] | 113
40 | COc1cccc(Cn2c3ccccc3c3c(OCCN)cccc32)c1 [Example 57, 2-{[9-(3-Methoxybenzyl)-9H-carbazol-4-yl]oxy}ethylamine] | 110
41 | COc1ccc2c3c(OCCN)cccc3n(Cc3ccccc3)c2c1 [Example 62, 2-[(9-Benzyl-7-methoxy-9H-carbazol-4-yl)oxy]ethylamine] | 60
42 | CCOC(=O)CCNCCOc1cccc2c1c1ccccc1n2Cc1ccccc1 [Example 25, ethyl 3-({2-[(9-benzyl-9H-carbazol-4-yl)oxy]ethyl}amino)propanoate] | 40
